Numbered stars: 1 amine (or outer) side, 2 acyl side, 3 side chain; on linkers, the order of the positions; unused ones are H or OH. Square brackets hold non-standard residues; d marks the D form. Peptide text beside a SMILES is read from it. * marks the point of attachment. DOTA = O=C(O)CN1CCN(CC(=O)O)CCN(CC(=O)*)CCN(CC(=O)O)CC1; d(γGlu) = O=C(O)[C@@H](CCC(=O)[*:2])N[*:1]; 1Nal = N[C@@H](Cc1cccc2ccccc12)C(=O)O; NMeNle = CCCC[C@H](NC)C(=O)O; PEG4 = NCCOCCOCCOCCOCCC(=O)O
Test system: AR42J tumor-bearing mice
Assay: in vivo
Set-up: species or system BALB/c nude mice
Conditions: mouse, 1 h
Experimental: To complement the imaging studies, biodistribution experiments were performed. AR42J tumor-bearing mice were intravenously injected with 3.7 MBq of [^68Ga]Ga-DOTA-CCK2R-dimer (≈ 120 pmol) or [^68Ga]Ga-DOTA-CCK-66 (≈ 210 pmol) (dissolved in 200 μL of saline; n = 3/group). The mice were sacrificed at 30, 60, and 120 min post-injection, and the tissues of interest were excised, weighed, and analyzed for radioactivity using a γ-counter. For blocking studies, a 400-fold excess of the lead compound was co-administered, and the mice were sacrificed at 1 h post-injection.
All animal studies were approved by the Ethics Committee of Fudan University
Shanghai Cancer Center (No. FUSCC-IACUC- S2023- 0003). Five-week-old female
BALB/c nude mice were purchased from Shanghai SLAC Laboratory Animal
Company. To establish cell-derived xenograft (CDX) models, 1 × 10⁶ AR42J cells
(100 μL) were subcutaneously inoculated into the right shoulder of each mouse. […]

CCCC[C@@H](C(=O)N[C@@H](CC(=O)O)C(=O)N[C@@H](Cc1cccc2ccccc12)C(N)=O)N(C)C(=O)[C@H](Cc1c[nH]c2ccccc12)NC(=O)CCOCCOCCOCCOCCNC(=O)CC[C@@H](NC(=O)CN1CCN(CC(=O)O)CCN(CC(=O)O)CCN(CC(=O)O)CC1)C(=O)O [[68Ga]Ga-DOTA-CCK-66, metal not drawn, reference compound] ({DOTA-d(γGlu)-PEG4}-W[NMeNle]D[1Nal]-NH2)
Bladder uptake: 1.15 ± 1.21 %ID/g
Kidney uptake: 12.68 ± 3.71 %ID/g
Liver uptake: 0.96 ± 0.26 %ID/g
Stomach uptake: 1.49 ± 0.64 %ID/g
